Columns and labels:
soybean [1] = test: Preemergent control of plant species; type: in vivo, Glycine max.; conditions: Glycine max, pre-emergence, 336 h; 0.25 lb/acre; read-out: percent preemergent control
Method in brief: (§1)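 Seeds sown in agricultural soil beds in a greenhouse received aqueous emulsions of test compositions applied uniformly over the bed surface at the listed rates; water-treated beds served as control. After two weeks under greenhouse growth conditions, control was scored as growth reduction versus untreated plants of the same species.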

crabgrass [2] = test: Preemergent control of plant species; type: in vivo, Digitaria spp.; conditions: Digitaria sanguinalis, pre-emergence, 336 h; 0.25 lb/acre; read-out: percent preemergent control
Description: The seeds of various species of plants were planted in beds of good agricultural soil in a greenhouse. A number of compositions of the present invention, generally in the nature of an aqueous emulsion, were applied at rates listed in the table so as to deposit a predetermined amount of active ingredients uniformly throughout the surface of the bed. Another seed bed was treated only with water to serve as a control. After treatment the seed beds were maintained for two weeks under greenhouse conditions conducive for good plant growth and watered as necessary. Control refers to the reduction in growth compared to the observed results of the same untreated species.

cotton [3] = test: Preemergent control of plant species; type: in vivo, Gossypium spp.; conditions: Gossypium hirsutum, pre-emergence, 336 h; 0.25 lb/acre; read-out: percent preemergent control
Method in brief: as §1

velvetleaf [4] = test: Preemergent control of plant species; type: in vivo, Abutilon theophrasti; conditions: Abutilon theophrasti, pre-emergence, 336 h; 0.25 lb/acre; read-out: percent preemergent control
Method in brief: as §1

rice [5] = test: Preemergent control of plant species; type: in vivo, Oryza sativa; conditions: Oryza sativa, pre-emergence, 336 h; 0.25 lb/acre; read-out: percent preemergent control
Method in brief: as §1

yellow nutsedge [6] = test: Preemergent control of plant species; type: in vivo, Cyperus esculentus; conditions: Cyperus, pre-emergence, 336 h; 0.25 lb/acre; read-out: percent preemergent control
Method in brief: as §1

jimsonweed [7] = test: Preemergent control of plant species; type: in vivo, Datura stramonium; conditions: Datura stramonium, pre-emergence, 336 h; 0.25 lb/acre; read-out: percent preemergent control
Method in brief: as §1

wheat [8] = test: Preemergent control of plant species; type: in vivo, Triticum aestivum; conditions: Triticum aestivum, pre-emergence, 336 h; 0.25 lb/acre; read-out: percent preemergent control
Method in brief: as §1

sugar beet [9] = test: Preemergent control of plant species; type: in vivo, Beta saccharifera; conditions: Beta vulgaris, pre-emergence, 336 h; 0.25 lb/acre; read-out: percent preemergent control
Method in brief: as §1

corn [10] = test: Preemergent control of plant species; type: in vivo, Zea mays; conditions: Zea mays, pre-emergence, 336 h; 0.25 lb/acre; read-out: percent preemergent control
Method in brief: as §1

yellow foxtail [11] = test: Preemergent control of plant species; type: in vivo, Setaria lutescens; conditions: Setaria, pre-emergence, 336 h; 0.25 lb/acre; read-out: percent preemergent control
Method in brief: as §1

rape [12] = test: Preemergent control of plant species; type: in vivo, Brassica napus; conditions: Brassica napus, pre-emergence, 336 h; 0.25 lb/acre; read-out: percent preemergent control
Method in brief: as §1

barnyardgrass [13] = test: Preemergent control of plant species; type: in vivo, Echinochloa crusgalli; conditions: Echinochloa crus-galli, pre-emergence, 336 h; 0.25 lb/acre; read-out: percent preemergent control
Method in brief: as §1

sorghum [14] = test: Preemergent control of plant species; type: in vivo, Sorghum vulgare; conditions: Sorghum, pre-emergence, 336 h; 0.25 lb/acre; read-out: percent preemergent control
Method in brief: as §1

johnson grass [15] = test: Preemergent control of plant species; type: in vivo, Sorghum halepense; conditions: Sorghum halepense, pre-emergence, 336 h; 0.25 lb/acre; read-out: percent preemergent control
Method in brief: as §1

wild oats [16] = test: Preemergent control of plant species; type: in vivo; conditions: Avena fatua, pre-emergence, 336 h; 0.25 lb/acre; read-out: percent preemergent control
Method in brief: as §1

annual morning glory [17] = test: Preemergent control of plant species; type: in vivo, Ipomoea spp.; conditions: Ipomoea, pre-emergence, 336 h; 0.25 lb/acre; read-out: percent preemergent control
Method in brief: as §1

pigweed = test: Postemergent control of plant species; type: in vivo, Amaranthus spp.; conditions: Amaranthus retroflexus, post-emergence, 336 h, read-out: percent postemergent control
Method in brief: (§2)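 Compounds were taken up in acetone at twice the final concentration, then diluted with an equal volume of water containing 0.1% surfactant and sprayed onto greenhouse-grown plants at the 2-4 leaf stage. Plants were kept about two weeks under growth conditions; control is growth reduction relative to untreated plants of the same species.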

rice [18] = test: Control of aquatic plant species (paddy water); type: in vivo, Oryza sativa; conditions: Oryza sativa, 216 h; 2.0 Kg/Ha, nine days; read-out: Percent control
Method in brief: (§3)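 Seedlings at the 1-2 inch stage were transplanted into about 2 inches of soil and flooded to roughly 1 inch. An acetone concentrate of test chemical was injected into the paddy water, with the injected volume varied to set concentration. Percent control was rated nine days after application.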

cocklebur = test: Postemergent control of plant species; type: in vivo, Xanthium spp.; conditions: Xanthium strumarium, post-emergence, 336 h, read-out: percent postemergent control
Method in brief: as §2

annual morning glory [19] = test: Postemergent control of plant species; type: in vivo, Ipomoea spp.; conditions: Ipomoea, post-emergence, 336 h, read-out: percent postemergent control
Method in brief: as §2

rice [20] = test: Postemergent control of plant species; type: in vivo, Oryza sativa; conditions: Oryza sativa, post-emergence, 336 h, read-out: percent postemergent control
Method in brief: as §2

[21] = system: nitrification of ammonium nitrogen; test: Suppression of nitrification of ammonium nitrogen in soil; conditions: 27° C.
Method in brief: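 Value is % NH4-N remaining after a two-week, 27° C incubation of treated soil held at 1/3 bar tension moisture. Nitrate was measured with an ion-selective electrode after extraction with ammonium sulfate solution and 10 min shaking.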

cotton [22] = test: Postemergent control of plant species; type: in vivo, Gossypium spp.; conditions: Gossypium hirsutum, post-emergence, 336 h, read-out: percent postemergent control
Method in brief: as §2

yellow foxtail [23] = test: Postemergent control of plant species; type: in vivo, Setaria lutescens; conditions: Setaria, post-emergence, 336 h, read-out: percent postemergent control
Method in brief: as §2

crabgrass [24] = test: Postemergent control of plant species; type: in vivo, Digitaria spp.; conditions: Digitaria sanguinalis, post-emergence, 336 h, read-out: percent postemergent control
Method in brief: as §2

rape [25] = test: Postemergent control of plant species; type: in vivo, Brassica napus; conditions: Brassica napus, post-emergence, 336 h, read-out: percent postemergent control
Method in brief: as §2

sugar beet [26] = test: Postemergent control of plant species; type: in vivo, Beta saccharifera; conditions: Beta vulgaris, post-emergence, 336 h, read-out: percent postemergent control
Method in brief: as §2

wild oats [27] = test: Postemergent control of plant species; type: in vivo, Avena fatua; conditions: Avena fatua, post-emergence, 336 h, read-out: percent postemergent control
Method in brief: as §2

barnyardgrass [28] = test: Postemergent control of plant species; type: in vivo, Echinochloa crusgalli; conditions: Echinochloa crus-galli, post-emergence, 336 h, read-out: percent postemergent control
Method in brief: as §2

corn [29] = test: Postemergent control of plant species; type: in vivo, Zea mays; conditions: Zea mays, post-emergence, 336 h, read-out: percent postemergent control
Method in brief: as §2

yellow nutsedge [30] = test: Control of aquatic plant species (paddy water); type: in vivo, Cyperus esculentus; conditions: Cyperus, 216 h; 2.0 Kg/Ha, nine days; read-out: Percent control
Method in brief: as §3

jimsonweed [31] = test: Postemergent control of plant species; type: in vivo, Datura stramonium; conditions: Datura stramonium, post-emergence, 336 h, read-out: percent postemergent control
Method in brief: as §2

barnyardgrass [32] = test: Control of aquatic plant species (paddy water); type: in vivo, Echinochloa crusgalli; conditions: Echinochloa crus-galli, 216 h; 2.0 Kg/Ha, nine days; read-out: Percent control
Description: In testing for such utility, the plant species to be tested were transplanted into 16 oz. containers into about 2 inches of soil when they were in the 1-2 inch stage and then flooded to a depth of about 1 inch. An acetone concentrate of the chemical to be tested was then injected into the paddy water, the volume injected being varied as desired to provide the desired concentration. Percent control was evaluated nine days after application.

sprangletop = test: Control of aquatic plant species (paddy water); type: in vivo, Leptochloa filiformis; conditions: Leptochloa filiformis, 216 h; 2.0 Kg/Ha, nine days; read-out: Percent control
Method in brief: as §3

wheat [33] = test: Postemergent control of plant species; type: in vivo, Triticum aestivum; conditions: Triticum aestivum, post-emergence, 336 h, read-out: percent postemergent control
Method in brief: as §2

sorghum [34] = test: Postemergent control of plant species; type: in vivo, Sorghum vulgare; conditions: Sorghum, post-emergence, 336 h, read-out: percent postemergent control
Method in brief: as §2

velvetleaf [35] = test: Postemergent control of plant species; type: in vivo, Abutilon theophrasti; conditions: Abutilon theophrasti, post-emergence, 336 h, read-out: percent postemergent control
Method in brief: as §2

johnson grass [36] = test: Postemergent control of plant species; type: in vivo, Sorghum halepense; conditions: Sorghum halepense, post-emergence, 336 h, read-out: percent postemergent control
Method in brief: as §2

soybean [37] = test: Postemergent control of plant species; type: in vivo, Glycine max.; conditions: Glycine max, post-emergence, 336 h, read-out: percent postemergent control
Method in brief: as §2

yellow nutsedge [38] = test: Postemergent control of plant species; type: in vivo, Cyperus esculentus; conditions: Cyperus, post-emergence, 336 h, read-out: percent postemergent control
Method in brief: as §2

**Q.** What does the source list for COc1cccc(C(F)(F)F)c1NS(=O)(=O)c1nc2nc(C)cc(C)n2n1 [Compound 104]?
**A.** plant injury at 280.212 g/ha (soybean [1]): 100%; pest or weed control at 280.212 g/ha (crabgrass [2]): 100%; plant injury at 280.212 g/ha (cotton [3]): 100%; pest or weed control at 280.212 g/ha (velvetleaf [4]): 100%; plant injury at 280.212 g/ha (rice [5]): 100%; pest or weed control at 280.212 g/ha (yellow nutsedge [6]): 100%; pest or weed control at 280.212 g/ha (jimsonweed [7]): 100%; plant injury at 280.212 g/ha (wheat [8]): 100%; plant injury at 280.212 g/ha (sugar beet [9]): 100%; plant injury at 280.212 g/ha (corn [10]): 100%; pest or weed control at 280.212 g/ha (yellow foxtail [11]): 100%; plant injury at 280.212 g/ha (rape [12]): 100%; pest or weed control at 280.212 g/ha (barnyardgrass [13]): 100%; plant injury at 280.212 g/ha (sorghum [14]): 100%; pest or weed control at 280.212 g/ha (johnson grass [15]): 100%; pest or weed control at 280.212 g/ha (wild oats [16]): 100%; pest or weed control at 280.212 g/ha (annual morning glory [17]): 100%

**Q.** For COc1ccccc1NS(=O)(=O)c1nc2nc(C)cc(C)n2n1 [Compound 4], which pest or weed control at 500 ppm (pigweed) is on record?
**A.** 0%

**Q.** What about the pest or weed control at 2000 g/ha (rice [18]) of the same compound?
**A.** 90%

**Q.** What about the pest or weed control at 500 ppm (cocklebur) of the same compound?
**A.** 40%

**Q.** What about the pest or weed control at 500 ppm (annual morning glory [19]) of the same compound?
**A.** 0%

**Q.** And the plant injury at 500 ppm (rice [20])?
**A.** 40%

**Q.** And the “% NH4-N Remaining After 2 Weeks Incubation” value ([21]; 0.01 ppm)?
**A.** 0%

**Q.** And the “% NH4-N Remaining After 2 Weeks Incubation” value ([21]; 0.1 ppm)?
**A.** 0%

**Q.** And the “% NH4-N Remaining After 2 Weeks Incubation” value ([21]; 1 ppm)?
**A.** 38%

**Q.** What about the “% NH4-N Remaining After 2 Weeks Incubation” value ([21]; 10 ppm) of the same compound?
**A.** 71%

**Q.** What about the plant injury at 500 ppm (cotton [22]) of the same compound?
**A.** 10%

**Q.** What about the pest or weed control at 500 ppm (yellow foxtail [23]) of the same compound?
**A.** 0%

**Q.** What about the pest or weed control at 500 ppm (crabgrass [24]) of the same compound?
**A.** 20%

**Q.** And the plant injury at 500 ppm (rape [25])?
**A.** 40%

**Q.** What about the plant injury at 500 ppm (sugar beet [26]) of the same compound?
**A.** 70%

**Q.** What about the pest or weed control at 500 ppm (wild oats [27]) of the same compound?
**A.** 0%

**Q.** And the pest or weed control at 500 ppm (barnyardgrass [28])?
**A.** 0%

**Q.** And the plant injury at 500 ppm (corn [29])?
**A.** 0%

**Q.** What about the pest or weed control at 2000 g/ha (yellow nutsedge [30]) of the same compound?
**A.** 80%

**Q.** What about the pest or weed control at 500 ppm (jimsonweed [31]) of the same compound?
**A.** 60%

**Q.** And the pest or weed control at 2000 g/ha (barnyardgrass [32])?
**A.** 95%

**Q.** And the pest or weed control at 2000 g/ha (sprangletop)?
**A.** 45%

**Q.** What about the plant injury at 500 ppm (wheat [33]) of the same compound?
**A.** 0%

**Q.** And the plant injury at 500 ppm (sorghum [34])?
**A.** 40%

**Q.** What about the pest or weed control at 500 ppm (velvetleaf [35]) of the same compound?
**A.** 60%

**Q.** And the pest or weed control at 500 ppm (johnson grass [36])?
**A.** 80%

**Q.** And the plant injury at 500 ppm (soybean [37])?
**A.** 40%

**Q.** And the pest or weed control at 500 ppm (yellow nutsedge [38])?
**A.** 0%
